Columns and labels:
Assay type in all cases: in vivo
interleukin-1β (mIL-1β) = assay: Mouse air pouch model of MSU-induced gout: IL-1β in exudate by ELISA; settings: Example 4, FIG. 3; topical paste 100 mg/mouse (5 mg actives total) 15 h prior to MSU; exudate 5 h after MSU
Description: (§1) Mouse Air pouch model: this mouse model may be referenced to the methods and the experimental details as in the published article “Role of S100A8 and S100A9 in neutrophil recruitment in response to monosodium urate monohydrate crystals in the air-pouch model of acute gouty arthritis”, Arthritis Rheum 2003 August, 48(8):2310-20. The full content of such document as a whole is incorporated by reference herein and made a part of this specification.
(§2) Before the experiment, the mice are shaved to remove back hair. At day 0 sterile filtered air (2 ml/per mouse) is injected through 0.22 μm microfilter to the back of each mouse subcutaneously, so that a pseudosynovial cavity is formed in each mouse. At day 3, an air booster (3 ml/mouse) is again given to each mouse, so that the air pouch is maintained round. Later, the mice are weighed and grouped so that the average weight of the mice in each group is about the same. At day 6 monosodium urate (MSU) crystal suspension (5 mg in 2 ml/per mouse) is injected into the air pouch. Topical application of the paste (100 mg paste/per mouse) is administrated 15 hours prior to MSU stimulation. At a specific time (5 hours) after the injection of MSU, the mice were euthanized with an excess of carbon dioxide, 2 ml PBS per mouse is injected into the air pouch, and the air pouch is carefully cut to collect the exudate. […]

interleukin-6 (mIL-6) = assay: Mouse air pouch model of MSU-induced gout: IL-6 in exudate by ELISA; settings: Example 4, FIG. 4; topical paste 100 mg/mouse (5 mg actives total) 15 h prior to MSU; exudate 5 h after MSU
Description: as §1, §2

[1] = system: neutrophil cell (CD45+/Ly6G+ cells); assay: Mouse air pouch model of MSU-induced gout: neutrophil cell density in exudate by flow cytometry; settings: for AVERAGE VALUES (neutrophil cell density): Example 4, Table 3, topical paste 100 mg/mouse (5 mg actives total) 15 h prior to MSU, exudate 5 h after MSU; for INHIBITION RATE (neutrophils): Example 4, Table 3, vs blank control, topical paste 100 mg/mouse (5 mg actives total)
Description: as §1
(§3) Before the experiment, the mice are shaved to remove back hair. At day 0 sterile filtered air (2 ml/per mouse) is injected through 0.22 μm microfilter to the back of each mouse subcutaneously, so that a pseudosynovial cavity is formed in each mouse. At day 3, an air booster (3 ml/mouse) is again given to each mouse, so that the air pouch is maintained round. Later, the mice are weighed and grouped so that the average weight of the mice in each group is about the same. At day 6 monosodium urate (MSU) crystal suspension (5 mg in 2 ml/per mouse) is injected into the air pouch. Topical application of the paste (100 mg paste/per mouse) is administrated 15 hours prior to MSU stimulation. At a specific time (5 hours) after the injection of MSU, the mice were euthanized with an excess of carbon dioxide, 2 ml PBS per mouse is injected into the air pouch, and the air pouch is carefully cut to collect the exudate. The collected exudate is subjected to the centrifugation at 1,000 rpm, 4° C. for 5 minutes, and the supernatant is then placed in a 96-well plate and stored at −20° C. An ELISA kit (purchased from R&D Systems) is used to analyze the contents of IL-1β and IL-6 in the exudate. The precipitate is resuspended and reacted with 1 ml red blood cell lysis buffer (RBC lysis buffer) for one minute to remove the red blood cells, followed by adding 1 ml PBS to terminate the reaction, centrifuged at 1,000 rpm, 25° C. for 5 minutes, and the supernatant is discarded. The precipitate is then resuspended in 1 ml PBS as the cell suspension and the cell suspension is filtered by filter membrane (BD Falcon 100 μm Nylon filter strainer) and the filtered cell suspension is dispensed into several tubes (0.25 ml/tube) for subsequent cell counting or for labelling with various differentiation antigen markers (such as cluster of differentiation (CD) markers). The flow cytometry is used for cell counting of the various cells.
(§4) In order to investigate the anti-gout efficacy of AG02-RA1 and AG04-RA1, either used alone or in combination, the experiments are performed to test AG02-RA1 alone, AG04-RA1 alone and the combination (s) of AG02-RA1:AG04-RA1 in the ratio of 50:50 (Composition Nos. 1, 2 and 3 as shown in Table 1). […]

[2] = system: leukocyte cell (CD45+ cells); assay: Mouse air pouch model of MSU-induced gout: leukocyte cell density in exudate by flow cytometry; settings: for AVERAGE VALUES (normalized leukocyte cell density): Example 4, Table 2, topical paste 100 mg/mouse (5 mg actives total) 15 h prior to MSU, exudate 5 h after MSU; for INHIBITION RATE (leukocytes): Example 4, Table 2, vs blank control, topical paste 100 mg/mouse (5 mg actives total) 15 h prior to MSU
Description: as §1, §3, §4

CC(=O)OCC=Cc1ccc(OC(C)=O)cc1 [AG04-RA1, 4-(3-acetoxy-propenyl)-phenyl acetate]
inhibition rate of interleukin-1β secretion amount (interleukin-1β (mIL-1β)): > 50%
inhibition rate of interleukin-6 secretion amount (interleukin-6 (mIL-6)): > 50%
AVERAGE VALUES (neutrophil cell density) [1]: 205 cells*10^3/ml
INHIBITION RATE (neutrophils) [1]: 43%
AVERAGE VALUES (normalized leukocyte cell density) [2]: 670 cells*10^3/ml
INHIBITION RATE (leukocytes) [2]: 17%

C=C1C(=O)OC2/C=C(\C)CC3C=C(CC/C=C(\C)CCC12)C(=O)O3 (stereo not shown) [AG02-RA1, 3,7,11,15(17)-cembratetraene-16,2:19,6-diolide-3484-37-5(3E,12E)-3,12-dimethyl-8-methylene-6,18-dioxa-tricyclo[14.2.1.0.5,9]nonadeca-3,12,16(19)-triene-7,17-dione]
AVERAGE VALUES (neutrophil cell density) [1]: 133 cells*10^3/ml
INHIBITION RATE (neutrophils) [1]: 63%
AVERAGE VALUES (normalized leukocyte cell density) [2]: 1609 cells*10^3/ml
INHIBITION RATE (leukocytes) [2]: −100%

From patent US8969410B1, “Pharmaceutical composition for alleviating or treating gout and uses thereof” (Industrial Technology Research Institute, priority 2013, dated 2015)
